Measured values taken from PMC10952535, “The differential binding and biological efficacy of auxin herbicides” (Pest Management Science, 2022).

How the values were obtained:
[1] = test system: Arabidopsis thaliana afb5‐1 mutant line; format: in vivo; settings: for GR50 (DW % of NT) / GR50 (visual injury): afb5‐1, foliar application; for GR50 (DW % of NT): dry weight at 14 DAT; for Resistance ratio (afb5‐1 vs WT), DW: ratio of dry weight GR50 values; for Resistance ratio (afb5‐1 vs WT), DW / Resistance ratio (afb5‐1 vs WT), visual injury: foliar application; for Resistance ratio (afb5‐1 vs WT), visual injury: ratio of visual injury GR50 values
Procedure: (§1) Bioassays were carried out with the model species Arabidopsis thaliana. The wild type (WT) Col‐0 line was compared to an afb5‐1 mutant line in a Col‐0 background containing a missense mutation of R609K.[11] A. thaliana seeds were sown on Metro‐mix 360 potting mix (Sungro Horticulture) supplemented with vermiculite and stratified for 3 days at 4 °C in the dark. Flats were moved to a growth chamber (as above) and a plastic lid was placed on the flat. On germination, the lid was removed. After 2 weeks in the growth chamber, seedlings were transplanted into 3‐in. pots with Metro‐mix 360 potting mix and moved to a greenhouse. The greenhouse was maintained at a day/night temperature of 23/22 °C and supplemented with light to complete a 16 h photoperiod. Plants were allowed to recover from transplanting for 1 week prior to applications. A. thaliana seedlings were sprayed with test compounds at five rates with four replications. Tests included nontreated and solvent check controls. Individual compound doses varied and were based on plate test data or anecdotal potency. Compounds were formulated as technical material and were initially dissolved in 1 part 97:3 (v/v) acetone: dimethylsufoxide (DMSO) followed by 5 parts 1.5% (v/v) Agridex crop oil concentrate in distilled water to give a final concentration of 1.25% (v/v) Agridex. Formulated compounds were sprayed at a volume of 187 L ha^−1 at a spray height of 43 cm above the plants with an overhead Mandel track sprayer set with 8002 E Tee jet nozzle. Plants were treated at rosette stage just prior to or at initiation of bolting. After spray application, plants were allowed to dry then moved back to the greenhouse. Plants were grown in the greenhouse (same conditions as above) for 2 weeks until harvest. Visual injury/growth reduction observations were made at 7 and 14 days after treatment (DAT) and scored where 0% = no growth reduction and 100% = complete growth reduction or plant death. At 14 DAT the plants were harvested and dried to collect dry weight (DW) biomass.
(§2) The data collected in the foliar application of compounds generated a measure of sensitivity or dose response. The data was analyzed by regression in JMP 10.0 and fit to a nonlinear exponential three parameter fit model:
(§3) where a is the asymptote, b is the scale and c is the rate of growth. The model was used to determine the herbicidal dose that caused 50% reduction in growth (GR50). GR50 values were compared between mutant and WT to give an indication of fold resistance over WT (Table 3). A log‐logistic model[24] was also used to fit the data and gave similar GR50 values with greater standard errors without changing the pattern of responsiveness.

[2] = molecular target: T1, AtAFB2 (Arabidopsis thaliana, UniProt Q9LW29); assay: SPR relative binding (co-receptor complex formation with Aux/IAA7 degron), AtAFB2; settings: 50 μM compound, compared to IAA
T1 construct: His10 (N, cleaved yes); eGFP (N, cleaved yes); FLAG (N, cleaved yes); made in house; host or cells: baculovirus; Trichoplusia ni Hi5 cells (virus generated in Sf9)
T1 sequence (Q9LW29 whole entry, other chains not shown): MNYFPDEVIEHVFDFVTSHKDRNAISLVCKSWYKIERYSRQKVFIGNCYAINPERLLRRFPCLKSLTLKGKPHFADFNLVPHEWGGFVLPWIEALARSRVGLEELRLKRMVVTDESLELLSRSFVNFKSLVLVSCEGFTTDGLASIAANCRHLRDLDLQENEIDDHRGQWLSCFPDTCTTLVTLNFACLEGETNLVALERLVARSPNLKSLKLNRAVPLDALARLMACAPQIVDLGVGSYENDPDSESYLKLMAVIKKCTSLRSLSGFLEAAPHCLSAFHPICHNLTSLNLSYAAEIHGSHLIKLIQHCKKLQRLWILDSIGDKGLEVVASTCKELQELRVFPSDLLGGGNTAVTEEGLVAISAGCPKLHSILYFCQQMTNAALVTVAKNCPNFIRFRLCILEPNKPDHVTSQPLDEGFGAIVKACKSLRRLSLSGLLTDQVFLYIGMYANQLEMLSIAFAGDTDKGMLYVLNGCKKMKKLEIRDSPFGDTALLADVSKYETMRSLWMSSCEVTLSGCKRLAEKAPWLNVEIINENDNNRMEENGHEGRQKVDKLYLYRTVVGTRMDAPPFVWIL
T1 sequence (Q39255 whole entry partner, other chains not shown): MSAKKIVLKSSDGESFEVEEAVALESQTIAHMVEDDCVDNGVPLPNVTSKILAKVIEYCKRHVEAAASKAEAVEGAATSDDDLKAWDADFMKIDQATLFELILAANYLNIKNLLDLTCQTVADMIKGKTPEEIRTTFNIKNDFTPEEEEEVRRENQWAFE
Procedure: (§4) Auxin binding assays using surface plasmon resonance (SPR) were performed on a Biacore 2000 as described previously.[3], [18], [23] Protein was stored on ice and protein concentrations were assayed by A280 nm measurement (nanodrop, Thermo Scientific). Briefly, AtAux/IAA7 degron peptide was immobilized on streptavidin‐coated SPR chips, and binding was measured in the presence of IAA or auxin analogue by recruitment of the TIR1/AFB protein from solution as the co‐receptor complex formed on the chip. Kinetic analyses were performed by single cycle kinetics on a Biacore T200 (Cytiva Life Sciences), titrating compounds against a fixed concentration of TIR1 before injection. The degron peptide density on the chips was controlled so that R max < 300 Response UNits (RU).

[3] = test system: Arabidopsis thaliana wild type (WT) Col‐0; assay: Foliar efficacy bioassay, wild type; format: in vivo; settings: foliar application; for GR50 (DW % of NT): dry weight at 14 DAT
Procedure: as §1, §2, §3

[4] = test system: Arabidopsis thaliana afb5‐1 seedlings; assay: Root growth inhibition bioassay, afb5‐1 mutant; format: in vivo; settings: afb5‐1 vs WT dose-response, 8 days
Procedure: A. thaliana seed was surface sterilized in 10 mL of 50% bleach and two drops of Tween‐20 for 12 min and rinsed six times with sterile water. Sterile growth media consisted of half‐strength Murashige and Skoog salts supplemented with 0.4% agar and 0.8% sucrose. In a laminar flow hood, 8 mL of liquid media was transferred to sterile test‐tubes placed in a heat block to maintain media in a liquid state. Compounds were previously diluted in 50/50 DMSO/water to a known molar concentration. A 50‐μL aliquot of diluted compound was added to each tube to give a specified final concentration, normally 10, 1, 0.1, 0.01 or 0.001 μM. A single tube was treated with solvent only as a control. Test compounds were mixed into the media by pipetting up and down three times, then 6 mL of media with test compound was added to one well in a six‐well plate, working from low‐to‐high concentration, and allowed to solidify in the laminar flow hood. Approximately 15 sterilized seeds were placed on the solidified surface and the remaining 2 mL of liquid media was added to cover and disperse seeds. Plates were sealed with paraffin and moved to a Conviron growth chamber set to 60% humidity, 25 °C and light intensity 100 μE m^2 s^−1 with a 16 h photoperiod. After 8 days primary root measurements of five random plants were taken by removing plants from media and measuring with a ruler. Treatments were compared against the solvent control to determine percentage root growth inhibition. Each experiment was run twice and averages were combined for analysis.

[5] = molecular target: T2, AtTIR1 (Arabidopsis thaliana, UniProt Q570C0); assay: SPR relative binding (co-receptor complex formation with Aux/IAA7 degron), AtTIR1; settings: 50 μM compound, compared to IAA
T2 construct: His10 (N, cleaved yes); eGFP (N, cleaved yes); FLAG (N, cleaved yes); made in house; host or cells: baculovirus; Trichoplusia ni Hi5 cells (virus generated in Sf9)
T2 sequence (Q570C0 whole entry, other chains not shown): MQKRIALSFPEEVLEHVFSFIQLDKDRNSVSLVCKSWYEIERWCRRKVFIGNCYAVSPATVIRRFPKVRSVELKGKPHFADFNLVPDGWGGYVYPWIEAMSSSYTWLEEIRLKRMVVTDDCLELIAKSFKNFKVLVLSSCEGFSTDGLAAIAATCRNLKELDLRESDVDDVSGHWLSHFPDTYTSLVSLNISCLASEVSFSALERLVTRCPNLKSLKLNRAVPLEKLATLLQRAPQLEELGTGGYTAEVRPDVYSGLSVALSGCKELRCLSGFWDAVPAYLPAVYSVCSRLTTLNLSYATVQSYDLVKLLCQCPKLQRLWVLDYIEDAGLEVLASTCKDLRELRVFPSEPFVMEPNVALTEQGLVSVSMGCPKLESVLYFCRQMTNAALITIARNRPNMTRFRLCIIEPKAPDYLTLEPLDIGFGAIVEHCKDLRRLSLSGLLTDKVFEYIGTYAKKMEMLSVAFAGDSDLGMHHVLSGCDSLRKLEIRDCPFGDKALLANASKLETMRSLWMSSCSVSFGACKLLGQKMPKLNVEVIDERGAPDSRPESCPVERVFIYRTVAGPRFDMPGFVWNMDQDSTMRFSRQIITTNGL
T2 sequence (Q39255 whole entry partner, other chains not shown): as the sequence (Q39255 whole entry partner, other chains not shown) above
Procedure: as §4

[6] = molecular target: T3, AtAFB5 (Arabidopsis thaliana, UniProt Q9LTX2); assay: SPR relative binding (co-receptor complex formation with Aux/IAA7 degron), AtAFB5; settings: 50 μM compound, compared to IAA
T3 construct: His10 (N, cleaved yes); eGFP (N, cleaved yes); FLAG (N, cleaved yes); made in house; host or cells: baculovirus; Trichoplusia ni Hi5 cells (virus generated in Sf9)
T3 sequence (Q9LTX2 whole entry, other chains not shown): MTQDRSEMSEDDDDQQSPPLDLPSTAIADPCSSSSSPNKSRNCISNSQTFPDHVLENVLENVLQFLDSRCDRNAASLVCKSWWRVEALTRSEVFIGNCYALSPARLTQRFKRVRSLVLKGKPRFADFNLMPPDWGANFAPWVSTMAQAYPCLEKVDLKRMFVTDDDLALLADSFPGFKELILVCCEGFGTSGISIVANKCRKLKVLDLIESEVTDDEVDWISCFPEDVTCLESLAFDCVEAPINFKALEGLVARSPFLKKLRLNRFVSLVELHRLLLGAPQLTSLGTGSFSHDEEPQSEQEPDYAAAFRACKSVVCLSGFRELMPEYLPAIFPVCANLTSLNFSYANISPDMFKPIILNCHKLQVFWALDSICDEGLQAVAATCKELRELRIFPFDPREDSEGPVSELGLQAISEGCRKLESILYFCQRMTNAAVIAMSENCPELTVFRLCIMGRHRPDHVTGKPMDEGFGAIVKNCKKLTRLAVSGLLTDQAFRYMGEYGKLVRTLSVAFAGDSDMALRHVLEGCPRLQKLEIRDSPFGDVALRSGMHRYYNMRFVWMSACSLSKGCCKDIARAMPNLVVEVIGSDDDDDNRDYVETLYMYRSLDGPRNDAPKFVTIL
T3 sequence (Q39255 whole entry partner, other chains not shown): as the sequence (Q39255 whole entry partner, other chains not shown) above
Procedure: as §4

[7] = molecular target: T3, AtAFB5; assay: biochemical; format: binding; settings: averaged equilibrium dissociation constant, SPR single cycle kinetics; read-out: Ave KD
Procedure: as §4

[8] = molecular target: T2, AtTIR1; assay: biochemical; format: binding; settings: averaged equilibrium dissociation constant, SPR single cycle kinetics; read-out: Ave KD
Procedure: as §4

[9] = molecular target: T1, AtAFB2; assay: SPR single cycle kinetics, AtAFB2; format: binding; settings: averaged equilibrium dissociation constant, SPR single cycle kinetics; read-out: Ave KD
Procedure: as §4

Row | Compound | GR50 (DW % of NT) [1] [g ai ha^−1] | GR50 (visual injury) [1] [g ai ha^−1] | Resistance ratio (afb5‐1 vs WT), DW [1] | Resistance ratio (afb5‐1 vs WT), visual injury [1] | Relative binding (in words) [2] | GR50 (DW % of NT) [3] [g ai ha^−1] | GR50 (visual injury) [3] [g ai ha^−1] | Resistance of afb5‐1 in root growth inhibition (in words) [4] | Relative binding (in words) [5] | Relative binding (in words) [6] | Kd [7] [µM] | Kd [8] [µM] | Kd [9] [µM]
1 | COc1c(Cl)ccc(Cl)c1C(=O)O [Dicamba] | 60.8 | 290 | 3.7 | 1.7 | low binding | 16.5 | 169 | No resistance | low binding | low binding | – | – | –
2 | Cc1cc(Cl)ccc1OCC(=O)O [MCPA, 2‐methyl‐4‐chlorophenoxyacetic acid] | – | – | – | – | lower binding | – | – | – | lower binding | lower binding | – | – | –
3 | COc1c(Cl)ccc(-c2nc(C(=O)O)c(Cl)c(N)c2F)c1F [Florpyrauxifen] | 1 | 5.2 | 10 | 7.4 | – | 0.1 | 0.7 | considerable resistance | – | – | 2.7 | 62 | 105
4 | O=C(O)Cc1cccc2ccccc12 [1‐NAA, 1‐napthaleneacetic acid] | – | – | – | – | – | – | – | No resistance | – | – | – | – | –
5 | Cc1cc(Cl)ccc1OC(C)C(=O)O (stereo not shown) [mecoprop] | – | – | – | – | lower binding | – | – | – | lower binding | lower binding | – | – | –
6 | Nc1nc(C2CC2)nc(C(=O)O)c1Cl [Aminocyclopyrachlor] | 8.3 | 36.8 | 1.9 | 5.3 | – | 4.4 | 7 | considerable resistance | – | – | – | – | –
7 | Nc1c(Cl)c(F)nc(OCC(=O)O)c1Cl [Fluroxypyr] | 84.1 | 310 | 2.4 | 1.3 | lower binding than IAA | 35.7 | 234 | – | lower binding than IAA | lower binding than IAA | 95 | 18 | 45
